In patent US10752612B2, “PLK4 inhibitors” (LUDWIG INSTITUTE FOR CANCER RESEARCH LTD, priority 2015, dated 2020) one finds IC50 data, which are given here for 65 compounds.

As a reminder, the IC50 is the concentration at which inhibition is half-maximal. A high value points to weaker potency in that assay.

A value given as a limit tells only on which side of the number the result lay.

The target in the assay is T1, human Plk4 kinase domain (aa 2-275) (Homo sapiens, UniProt O00444).
T1 construct: purified 6×His-tagged human Plk4 kinase domain (aa 2-275); 6xHis; made in house; host or cells: E. coli
T1 sequence (O00444 2-275): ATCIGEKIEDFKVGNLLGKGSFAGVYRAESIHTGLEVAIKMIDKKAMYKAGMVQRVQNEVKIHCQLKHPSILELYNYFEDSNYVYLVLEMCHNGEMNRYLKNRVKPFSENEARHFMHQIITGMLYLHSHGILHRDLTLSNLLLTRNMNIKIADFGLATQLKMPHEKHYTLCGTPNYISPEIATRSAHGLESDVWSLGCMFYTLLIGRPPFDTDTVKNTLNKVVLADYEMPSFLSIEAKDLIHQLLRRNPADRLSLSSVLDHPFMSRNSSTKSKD
The experiment in a line: Plk4 kinase assay (ADP-Glo). Type of assay: biochemical. As to conditions: Table 1. As for the experimental part:
Kinase assays. […] The Plk4 concentration in the final reaction was 2.5-10 nM with a final pH of 8.0. […] Reactions were allowed to proceed for 4-16 hours at 25° C. Detection was performed using ADP-Glo reagent (Promega), following manufacturer's instructions. Luminescence was measured on an Infinite M1000 plate reader (Tecan). Data were fit using Prism (GraphPad) and Kis were calculated from IC50 data using the Cheng and Prusoff equation (37) or the Copeland formalism for tight-binding inhibitors (38).
In general terms: In ADP-Glo the light output rises with the ADP produced.
The compound `Cc1cc(Nc2nc(Sc3ccc(NC(=O)C4CC4)cc3)nc3c2CCC3)n[nH]1` returned an IC50 of more than 1000 nM.

Compound `COc1c(Nc2cc(C)[nH]n2)nc(Sc2ccc(NC(=O)C3CCCC3)cc2)nc1N(C)C` came in with an IC50 of less than 1000 nM.

In turn, `CCN(C)c1nc(Sc2ccc(NC(=O)C3CCCC3)cc2)nc(Nc2cc(C)[nH]n2)c1OC` gave an IC50 of 100 to 1000 nM.

Regarding `COc1c(Nc2cc(C)[nH]n2)nc(Sc2ccc(NC(=O)C3CCCC3)cc2)nc1N1CCCCC1`, the IC50 was in the range of 100 to 1000 nM.

Compound `COCCN(C)c1nc(Sc2ccc(NC(=O)C3CCCC3)cc2)nc(Nc2cc(C)[nH]n2)c1OC` returned an IC50 of 100 to 1000 nM.

`COCCNc1nc(Sc2ccc(NC(=O)C3CCCC3)cc2)nc(Nc2cc(C)[nH]n2)c1OC` showed an IC50 of less than 1000 nM.

Consider `COc1c(Nc2cc(C)[nH]n2)nc(Sc2ccc(NC(=O)C3CCCC3)cc2)nc1N1CCN(C(C)=O)CC1`, for which the IC50 is less than 1000 nM.

Regarding `COc1c(Nc2cc(C)[nH]n2)nc(Sc2ccc(NC(C)=O)cc2)nc1C1CCN(CCN2CCN(C)CC2)CC1`, the IC50 is less than 1000 nM.

The compound `COc1c(Nc2cc(C)[nH]n2)nc(Sc2ccc(S(=O)(=O)CCO)cc2)nc1N1CCN(CCN(C)C)CC1` showed an IC50 of less than 1000 nM.

In turn, `CCCS(=O)(=O)c1ccc(Sc2nc(Nc3cc(C)[nH]n3)c(OC)c(N3CCN(CCN(C)C)CC3)n2)cc1` registered an IC50 of less than 1000 nM.

Turning to `CCS(=O)(=O)c1ccc(Sc2nc(Nc3cc(C)[nH]n3)c(OC)c(N3CCC(CCN(C)C)CC3)n2)cc1`, the IC50 is less than 1000 nM.

In turn, `COc1c(Nc2cc(C)[nH]n2)nc(Sc2ccc(S(=O)(=O)CC(C)C)cc2)nc1N1CCN(CCN(C)C)CC1` gave an IC50 of less than 1000 nM.

`CCS(=O)(=O)c1ccc(Sc2nc(Nc3cc(C)[nH]n3)c(OC)c(N3CCN(CCN4CCN(C)CC4)CC3)n2)cc1` showed an IC50 of less than 1000 nM.

On to `COc1c(Nc2cc(C)[nH]n2)nc(Sc2ccc(S(=O)(=O)C(C)C)cc2)nc1N1CCN(CCN(C)C)CC1`, for which the IC50 is less than 1000 nM.

Consider `COc1c(Nc2cc(C)[nH]n2)nc(Sc2ccc(S(=O)(=O)Cc3ccc(F)cc3)cc2)nc1N1CCN(CCN(C)C)CC1`, for which the IC50 is less than 1000 nM.

In the case of `COc1ccc(CS(=O)(=O)c2ccc(Sc3nc(Nc4cc(C)[nH]n4)c(OC)c(N4CCN(CCN(C)C)CC4)n3)cc2)cc1`, the IC50 was less than 1000 nM.

Compound `COc1c(Nc2cc(C)[nH]n2)nc(Sc2ccc(S(=O)(=O)Cc3ccccc3Cl)cc2)nc1N1CCN(CCN(C)C)CC1` gave an IC50 of less than 1000 nM.

With `COc1c(Nc2cc(C)[nH]n2)nc(Sc2ccc(S(=O)(=O)Cc3cccc(Cl)c3)cc2)nc1N1CCN(CCN(C)C)CC1`, the IC50 was less than 1000 nM.

`COc1c(Nc2cc(C)[nH]n2)nc(Sc2ccc(S(=O)(=O)Cc3ccncc3)cc2)nc1N1CCN(CCN(C)C)CC1` returned an IC50 of less than 1000 nM.

Take `COc1c(Nc2cc(C)[nH]n2)nc(Sc2ccc(S(C)(=O)=O)cc2)nc1N1CCC(CCN(C)C)CC1`: the IC50 is less than 1000 nM.

In the case of `COc1c(Nc2cc(C)[nH]n2)nc(Sc2ccc(S(=O)(=O)Cc3ccccc3)cc2)nc1N1CCC(CCN(C)C)CC1`, the IC50 was less than 1000 nM.

In the case of `COc1c(Nc2cc(C)[nH]n2)nc(Sc2ccc(S(=O)(=O)Cc3ccccc3)cc2)nc1N1CCN(C)CC1`, the IC50 was less than 1000 nM.

`CCS(=O)(=O)c1ccc(Sc2nc(Nc3cc(C)[nH]n3)c(OC)c(N3CCN(C)CC3)n2)cc1` showed a concentration for half-maximal inhibition (IC50) of less than 1000 nM.

Turning to `COc1c(Nc2cc(C)[nH]n2)nc(Sc2ccc(S(=O)(=O)Cc3cccnc3)cc2)nc1N1CCN(CCN(C)C)CC1`, the IC50 was less than 1000 nM.

For `COc1c(Nc2cc(C)[nH]n2)nc(Sc2ccc(S(=O)(=O)Cc3ccc(Cl)cc3)cc2)nc1N1CCN(CCN(C)C)CC1`, the IC50 was less than 1000 nM.

On to `COc1c(Nc2cc(C)[nH]n2)nc(Sc2ccc(S(=O)(=O)Cc3ccccc3)cc2)nc1N1CCN(CCN2C3CCCC2CCC3)CC1`, for which the IC50 was less than 1000 nM.

`COc1c(Nc2cc(C)[nH]n2)nc(Sc2ccc(S(=O)(=O)Cc3cccs3)cc2)nc1N1CCN(CCN(C)C)CC1` returned an IC50 of less than 1000 nM.

For the compound `CCS(=O)(=O)c1ccc(Sc2nc(Nc3cc(C)[nH]n3)c(OC)c(N3CCNCC3)n2)cc1`, the IC50 is less than 1000 nM.

The compound `COc1c(Nc2cc(C)[nH]n2)nc(Sc2ccc(S(=O)(=O)Cc3nccs3)cc2)nc1N1CCN(CCN(C)C)CC1` gave an IC50 of less than 1000 nM.

The compound `CCS(=O)(=O)c1ccc(Sc2nc(Nc3cc(C)[nH]n3)c(OC)c(C3CCN(CCN(C)C)CC3)n2)cc1` registered a half-inhibitory concentration (IC50) of less than 1000 nM.

For `COc1c(Nc2cc(C)[nH]n2)nc(Sc2ccc(S(=O)(=O)Cc3ccccc3)cc2)nc1C1CCN(CCN(C)C)CC1`, the IC50 is less than 1000 nM.

In turn, `CCS(=O)(=O)c1ccc(Sc2nc(Nc3cc(C)[nH]n3)c(OC)c(N3CCC(CCN4C5CCCC4CCC5)CC3)n2)cc1` registered an IC50 of less than 1000 nM.

Take `COc1c(Nc2cc(C)[nH]n2)nc(Sc2ccc(S(=O)(=O)Cc3ncc[nH]3)cc2)nc1N1CCN(CCN(C)C)CC1`: the IC50 was less than 1000 nM.

Compound `CCS(=O)(=O)c1ccc(Sc2nc(C)c(OC)c(Nc3cc(C)[nH]n3)n2)cc1` had an IC50 of less than 1000 nM.

Consider `COc1c(C)nc(Sc2ccc(S(=O)(=O)Cc3ccccc3)cc2)nc1Nc1cc(C)[nH]n1`, for which the IC50 was less than 1000 nM.

`COc1c(Nc2cc(C)[nH]n2)nc(Sc2ccc(S(=O)(=O)CCN(C)C)cc2)nc1N1CCN(CCN(C)C)CC1`: the concentration for half-maximal inhibition (IC50) is less than 1000 nM.

As for `COc1c(Nc2cc(C)[nH]n2)nc(Sc2ccc(S(=O)(=O)c3ccccc3)cc2)nc1N1CCN(CCN(C)C)CC1`, the IC50 is less than 1000 nM.

Consider `COc1c(Nc2cc(C)[nH]n2)nc(Sc2ccc(S(=O)(=O)Cc3ncco3)cc2)nc1N1CCN(CCN(C)C)CC1`, for which the IC50 is less than 1000 nM.

Turning to `CCOc1c(Nc2cc(C)[nH]n2)nc(Sc2ccc(S(=O)(=O)CC)cc2)nc1N1CCN(CCN(C)C)CC1`, the IC50 was less than 1000 nM.

`CCOc1c(Nc2cc(C)[nH]n2)nc(Sc2ccc(S(=O)(=O)Cc3ccccc3)cc2)nc1N1CCN(CCN(C)C)CC1` yielded an IC50 of less than 1000 nM.

In turn, `COc1c(Nc2cc(C)[nH]n2)nc(Sc2ccc(S(=O)(=O)Cc3ccccc3)cc2)nc1N1CCOCC1` registered an IC50 of less than 1000 nM.

`COc1c(Nc2cc(C)[nH]n2)nc(Sc2ccc(S(=O)(=O)Cc3ccccc3)cc2)nc1N(C)C` registered an IC50 of less than 1000 nM.

`COc1c(Nc2cc(C)[nH]n2)nc(Sc2ccc(S(=O)(=O)Cc3ccccc3)cc2)nc1N1CCCCC1` displayed an IC50 of less than 1000 nM.

Consider `COc1c(Nc2cc(C)[nH]n2)nc(Sc2ccc(S(=O)(=O)Cc3ccccc3)cc2)nc1N1CCN(CCN2CCN(C)CC2)CC1`, for which the IC50 was less than 1000 nM.

Regarding `COc1c(Nc2cc(C)[nH]n2)nc(Sc2ccc(S(=O)(=O)Cc3ccccc3)cc2)nc1N1CCN(CCN2C3CCCC2CC3)CC1`, the IC50 was less than 1000 nM.

Compound `Cc1cc(Nc2cc(N3CCN(CCN(C)C)CC3)nc(Sc3ccc(S(=O)(=O)Cc4ccccc4)cc3)n2)n[nH]1` had an IC50 of less than 1000 nM.

For the compound `COc1c(Nc2cc[nH]n2)nc(Sc2ccc(S(=O)(=O)Cc3ccccc3)cc2)nc1N1CCN(CCN(C)C)CC1`, the IC50 is less than 1000 nM.

On to `CCS(=O)(=O)c1ccc(Sc2nc(Nc3cc(C)[nH]n3)c(OC)c(N3CCCCC3)n2)cc1`, for which the IC50 was less than 1000 nM.

In the case of `CCS(=O)(=O)c1ccc(Sc2nc(Nc3cc(C)[nH]n3)c(OC)c(N3CCOCC3)n2)cc1`, the IC50 was less than 1000 nM.

Compound `COc1c(Nc2cc(C)[nH]n2)nc(Sc2ccc(S(=O)(=O)Cc3cccc([N+](=O)[O-])c3)cc2)nc1N1CCN(CCN(C)C)CC1` yielded an IC50 of less than 1000 nM.

Compound `COc1c(Nc2cc(C)[nH]n2)nc(Sc2ccc(S(=O)(=O)Cc3ccc([N+](=O)[O-])cc3)cc2)nc1N1CCN(CCN(C)C)CC1` gave an IC50 of less than 1000 nM.

The compound `CCN(CC)c1nc(Sc2ccc(S(=O)(=O)Cc3ccccc3)cc2)nc(Nc2cc(C)[nH]n2)c1OC` came in with an IC50 of less than 1000 nM.

The compound `CCN(CC)c1nc(Sc2ccc(S(=O)(=O)CC)cc2)nc(Nc2cc(C)[nH]n2)c1OC` showed an IC50 of less than 1000 nM.

Compound `CCOc1c(Nc2cc(C)[nH]n2)nc(Sc2ccc(S(=O)(=O)Cc3ccccc3)cc2)nc1N1CCNCC1` registered an IC50 of more than 1000 nM.

The compound `CCOc1c(Nc2cc(C)[nH]n2)nc(Sc2ccc(S(=O)(=O)CC)cc2)nc1N1CCNCC1` showed an IC50 of less than 1000 nM.

With `COc1c(Nc2cc(C)[nH]n2)nc(Sc2ccc(S(=O)(=O)Cc3ccc(F)cc3F)cc2)nc1N1CCN(CCN(C)C)CC1`, the IC50 is less than 1000 nM.

Take `COc1c(Nc2cc(C)[nH]n2)nc(Sc2ccc(S(=O)(=O)Cc3ccccc3F)cc2)nc1N1CCN(CCN(C)C)CC1`: the IC50 is less than 1000 nM.

The compound `COc1c(Nc2cc(C)[nH]n2)nc(Sc2ccc(S(=O)(=O)Cc3ccccc3)cc2)nc1N1CCN(CCN(C)c2ccccc2)CC1` yielded an IC50 of less than 1000 nM.

Consider `CCCOc1c(Nc2cc(C)[nH]n2)nc(Sc2ccc(S(=O)(=O)Cc3ccccc3)cc2)nc1N1CCN(CCN(C)C)CC1`, for which the IC50 was less than 1000 nM.

Compound `Cc1cc(Nc2nc(Sc3ccc(S(=O)(=O)Cc4ccccc4)cc3)nc(N3CCN(CCN(C)C)CC3)c2OC(C)C)n[nH]1` registered an IC50 of less than 1000 nM.

Compound `COc1c(Nc2cc(C)[nH]n2)nc(Sc2ccc(S(=O)(=O)Cc3cccc(O)c3)cc2)nc1N1CCN(CCN(C)C)CC1` had an IC50 of less than 1000 nM.

The compound `COc1c(Nc2cc(C)[nH]n2)nc(Sc2ccc(S(=O)(=O)Cc3cccc(OCc4ccccc4)c3)cc2)nc1N1CCN(CCN(C)C)CC1` returned an IC50 of less than 1000 nM.

For `COc1c(Nc2cc(C)[nH]n2)nc(Nc2ccc(S(=O)(=O)Cc3ccccc3)cc2)nc1N1CCN(CCN(C)C)CC1`, the IC50 is less than 1000 nM.

`CCOc1c(Nc2cc(C)[nH]n2)nc(Sc2ccc(S(=O)(=O)Cc3ccccc3)cc2)nc1N1CCN(CCN2C3CCCC2CC3)CC1` gave an IC50 of less than 1000 nM.

The compound `CCOc1c(Nc2cc(C)[nH]n2)nc(Sc2ccc(S(=O)(=O)CC)cc2)nc1N1CCC(CCN(C)C)CC1` returned a 50% inhibitory concentration (IC50) of less than 1000 nM.
